Experimental data: the NIST ThermoML archive (doi:10.1021/je0499317)

Test: excess molar enthalpy (molar enthalpy of mixing); xn = mol fraction of the nth substance listed
Conditions: 298.15 K, 101.33 kPa, Liquid

CCCCCCCCCC#N [1-decanenitrile] + CSCS(C)=O
Conditions	excess molar enthalpy [kcal/mol]
x2 = 0.02311	0.0228
x2 = 0.02808	0.029
x2 = 0.05736	0.0595
x2 = 0.07887	0.0808
x2 = 0.1059	0.108
x2 = 0.1267	0.128
x2 = 0.1515	0.149
x2 = 0.186	0.176
x2 = 0.2278	0.204
x2 = 0.2893	0.232
x2 = 0.3382	0.251
x2 = 0.3657	0.259
x2 = 0.4935	0.272
x2 = 0.5572	0.269
x2 = 0.6575	0.251
x2 = 0.7014	0.239
x2 = 0.7482	0.22
x2 = 0.7873	0.201
x2 = 0.8609	0.158
x2 = 0.9468	0.0728
x2 = 0.976	0.0352
x2 = 0.988	0.0193

CCCCCCCCCC#N [1-decanenitrile] + C[S+](C)[O-]
Conditions	excess molar enthalpy [kcal/mol]
x2 = 0.03778	0.0338
x2 = 0.04533	0.0418
x2 = 0.07244	0.0646
x2 = 0.08356	0.0746
x2 = 0.1458	0.132
x2 = 0.1516	0.137
x2 = 0.1578	0.141
x2 = 0.2138	0.183
x2 = 0.232	0.195
x2 = 0.3492	0.256
x2 = 0.4404	0.285
x2 = 0.52	0.299
x2 = 0.5471	0.302
x2 = 0.5564	0.304
x2 = 0.6253	0.301
x2 = 0.7275	0.282
x2 = 0.7979	0.251
x2 = 0.9212	0.139
x2 = 0.962	0.0765
x2 = 0.9868	0.0295

CCCCCCCCCCC#N [1-decylcyanide] + CSCS(C)=O
Conditions	excess molar enthalpy [kcal/mol]
x2 = 0.02536	0.029
x2 = 0.04055	0.0463
x2 = 0.04193	0.0496
x2 = 0.07582	0.0856
x2 = 0.07724	0.0867
x2 = 0.1217	0.127
x2 = 0.1402	0.142
x2 = 0.1596	0.159
x2 = 0.1889	0.181
x2 = 0.2628	0.223
x2 = 0.2767	0.231
x2 = 0.3234	0.252
x2 = 0.4218	0.278
x2 = 0.5052	0.286
x2 = 0.77	0.237
x2 = 0.8316	0.202
x2 = 0.8694	0.17
x2 = 0.9043	0.138
x2 = 0.9095	0.132
x2 = 0.9464	0.0864
x2 = 0.9933	0.0131

CCCCCCCCCCC#N [1-decylcyanide] + C[S+](C)[O-]
Conditions	excess molar enthalpy [kcal/mol]
x2 = 0.02797	0.0287
x2 = 0.05445	0.0548
x2 = 0.09234	0.0936
x2 = 0.1207	0.119
x2 = 0.1811	0.175
x2 = 0.1853	0.178
x2 = 0.2855	0.249
x2 = 0.3924	0.296
x2 = 0.5139	0.322
x2 = 0.5302	0.322
x2 = 0.6423	0.322
x2 = 0.7161	0.308
x2 = 0.8292	0.254
x2 = 0.8917	0.195
x2 = 0.9298	0.145
x2 = 0.9772	0.0547
x2 = 0.98	0.0491
x2 = 0.9927	0.0191

CCCCCCCCCCCCC#N [dodecanecarbonitrile] + CSCS(C)=O
Conditions	excess molar enthalpy [kcal/mol]
x2 = 0.06513	0.0772
x2 = 0.0823	0.104
x2 = 0.1316	0.15
x2 = 0.2014	0.209
x2 = 0.265	0.248
x2 = 0.3508	0.282
x2 = 0.367	0.289
x2 = 0.4233	0.301
x2 = 0.5443	0.306
x2 = 0.6344	0.294
x2 = 0.7341	0.264
x2 = 0.7878	0.237
x2 = 0.8039	0.227
x2 = 0.9082	0.138
x2 = 0.9683	0.0588
x2 = 0.9847	0.0293

CCCCCCCCCCCCC#N [dodecanecarbonitrile] + C[S+](C)[O-]
Conditions	excess molar enthalpy [kcal/mol]
x2 = 0.02177	0.0197
x2 = 0.06754	0.0683
x2 = 0.09519	0.0952
x2 = 0.09988	0.104
x2 = 0.1229	0.124
x2 = 0.2202	0.211
x2 = 0.2575	0.237
x2 = 0.2709	0.244
x2 = 0.28	0.253
x2 = 0.4232	0.309
x2 = 0.5464	0.322
x2 = 0.6358	0.318
x2 = 0.7394	0.297
x2 = 0.7753	0.283
x2 = 0.8034	0.269
x2 = 0.8609	0.226
x2 = 0.9001	0.181
x2 = 0.9286	0.144
x2 = 0.9571	0.0958
x2 = 0.9821	0.0459

CCCCCCC#N [heptanenitrile] + CSCS(C)=O
Conditions	excess molar enthalpy [kcal/mol]
x2 = 0.02045	0.0195
x2 = 0.05221	0.048
x2 = 0.08567	0.0762
x2 = 0.09776	0.0854
x2 = 0.1935	0.143
x2 = 0.2208	0.157
x2 = 0.2701	0.177
x2 = 0.3893	0.208
x2 = 0.4914	0.216
x2 = 0.579	0.212
x2 = 0.7478	0.171
x2 = 0.8609	0.111
x2 = 0.936	0.0591
x2 = 0.9576	0.0395
x2 = 0.9714	0.0275

CCCCCCC#N [heptanenitrile] + C[S+](C)[O-]
Conditions	excess molar enthalpy [kcal/mol]
x2 = 0.02225	0.0157
x2 = 0.07063	0.0501
x2 = 0.08316	0.059
x2 = 0.119	0.0815
x2 = 0.1747	0.116
x2 = 0.1851	0.123
x2 = 0.2248	0.142
x2 = 0.2423	0.153
x2 = 0.3049	0.179
x2 = 0.3581	0.199
x2 = 0.3605	0.201
x2 = 0.4935	0.23
x2 = 0.5772	0.233
x2 = 0.6522	0.226
x2 = 0.7056	0.214
x2 = 0.8946	0.114
x2 = 0.9545	0.0549
x2 = 0.9792	0.0267

CCCCCC#N [hexanenitrile] + CSCS(C)=O
Conditions	excess molar enthalpy [kcal/mol]
x2 = 0.01678	0.013
x2 = 0.02979	0.0247
x2 = 0.05841	0.0472
x2 = 0.07605	0.0589
x2 = 0.1435	0.103
x2 = 0.1944	0.13
x2 = 0.2184	0.141
x2 = 0.2608	0.158
x2 = 0.3826	0.188
x2 = 0.4382	0.193
x2 = 0.4785	0.194
x2 = 0.5751	0.187
x2 = 0.7307	0.15
x2 = 0.8373	0.107
x2 = 0.9177	0.0609
x2 = 0.9392	0.0468
x2 = 0.9784	0.0178

CCCCCC#N [hexanenitrile] + C[S+](C)[O-]
Conditions	excess molar enthalpy [kcal/mol]
x2 = 0.07452	0.0546
x2 = 0.09271	0.0665
x2 = 0.1474	0.1
x2 = 0.1952	0.125
x2 = 0.2583	0.154
x2 = 0.3135	0.174
x2 = 0.3528	0.185
x2 = 0.4343	0.201
x2 = 0.4908	0.207
x2 = 0.5806	0.205
x2 = 0.7154	0.181
x2 = 0.842	0.129
x2 = 0.8892	0.0984
x2 = 0.9559	0.0454
x2 = 0.9855	0.0149

CCCCCCCCCCCC#N [n-dodecanenitrile] + CSCS(C)=O
Conditions	excess molar enthalpy [kcal/mol]
x2 = 0.03008	0.0375
x2 = 0.03781	0.0476
x2 = 0.09203	0.107
x2 = 0.1008	0.114
x2 = 0.1789	0.178
x2 = 0.207	0.198
x2 = 0.2152	0.204
x2 = 0.3197	0.261
x2 = 0.3517	0.27
x2 = 0.5024	0.3
x2 = 0.5857	0.301
x2 = 0.7084	0.277
x2 = 0.8115	0.223
x2 = 0.8979	0.148
x2 = 0.9592	0.0667
x2 = 0.9865	0.0238

CCCCCCCCCCCC#N [n-dodecanenitrile] + C[S+](C)[O-]
Conditions	excess molar enthalpy [kcal/mol]
x2 = 0.02506	0.0231
x2 = 0.02612	0.0261
x2 = 0.07491	0.0764
x2 = 0.09988	0.104
x2 = 0.1665	0.168
x2 = 0.1791	0.185
x2 = 0.1948	0.194
x2 = 0.2522	0.243
x2 = 0.3366	0.293
x2 = 0.4308	0.327
x2 = 0.562	0.341
x2 = 0.7592	0.298
x2 = 0.8602	0.231
x2 = 0.8956	0.193
x2 = 0.9461	0.114
x2 = 0.9649	0.08
x2 = 0.9886	0.0287

CCCCCCCCC#N [nonanenitrile] + CSCS(C)=O
Conditions	excess molar enthalpy [kcal/mol]
x2 = 0.01839	0.0199
x2 = 0.03954	0.0411
x2 = 0.08357	0.0801
x2 = 0.1186	0.108
x2 = 0.175	0.149
x2 = 0.2257	0.178
x2 = 0.2686	0.199
x2 = 0.3721	0.232
x2 = 0.3812	0.234
x2 = 0.4654	0.25
x2 = 0.5564	0.253
x2 = 0.6409	0.241
x2 = 0.779	0.195
x2 = 0.8417	0.155
x2 = 0.8806	0.126
x2 = 0.9058	0.106
x2 = 0.9564	0.0531
x2 = 0.9784	0.0266

CCCCCCCCC#N [nonanenitrile] + C[S+](C)[O-]
Conditions	excess molar enthalpy [kcal/mol]
x2 = 0.05896	0.0512
x2 = 0.07322	0.0623
x2 = 0.09784	0.0826
x2 = 0.1285	0.107
x2 = 0.1721	0.141
x2 = 0.1898	0.153
x2 = 0.2365	0.183
x2 = 0.2408	0.187
x2 = 0.2698	0.204
x2 = 0.2836	0.211
x2 = 0.3841	0.252
x2 = 0.4577	0.272
x2 = 0.5425	0.285
x2 = 0.5442	0.285
x2 = 0.5569	0.285
x2 = 0.703	0.271
x2 = 0.7734	0.245
x2 = 0.8496	0.197
x2 = 0.8991	0.15
x2 = 0.939	0.103
x2 = 0.9712	0.0531
x2 = 0.9917	0.017

CCCCCCCC#N [octanenitrile] + CSCS(C)=O
Conditions	excess molar enthalpy [kcal/mol]
x2 = 0.02232	0.0208
x2 = 0.06732	0.064
x2 = 0.1083	0.0967
x2 = 0.16	0.133
x2 = 0.2232	0.17
x2 = 0.3476	0.216
x2 = 0.5207	0.237
x2 = 0.6218	0.228
x2 = 0.7086	0.206
x2 = 0.7769	0.177
x2 = 0.869	0.122
x2 = 0.9129	0.0878
x2 = 0.9266	0.0774
x2 = 0.9548	0.0497
x2 = 0.9879	0.0154

CCCCCCCC#N [octanenitrile] + C[S+](C)[O-]
Conditions	excess molar enthalpy [kcal/mol]
x2 = 0.02667	0.0195
x2 = 0.037	0.0293
x2 = 0.1176	0.0892
x2 = 0.18	0.134
x2 = 0.2399	0.169
x2 = 0.3293	0.213
x2 = 0.3877	0.233
x2 = 0.4654	0.251
x2 = 0.552	0.261
x2 = 0.6233	0.256
x2 = 0.7022	0.244
x2 = 0.8267	0.189
x2 = 0.8785	0.149
x2 = 0.9546	0.068
x2 = 0.9616	0.057
x2 = 0.992	0.0135

CCCCCCCCCCCCCC#N [tetradecanenitrile] + CSCS(C)=O
Conditions	excess molar enthalpy [kcal/mol]
x2 = 0.03538	0.0412
x2 = 0.05372	0.0689
x2 = 0.08438	0.103
x2 = 0.1289	0.153
x2 = 0.1565	0.177
x2 = 0.1984	0.21
x2 = 0.3348	0.281
x2 = 0.505	0.304
x2 = 0.6332	0.291
x2 = 0.6721	0.283
x2 = 0.8155	0.229
x2 = 0.8867	0.172
x2 = 0.9123	0.145
x2 = 0.9566	0.0871
x2 = 0.9858	0.0352

CCCCCCCCCCCCCC#N [tetradecanenitrile] + C[S+](C)[O-]
Conditions	excess molar enthalpy [kcal/mol]
x2 = 0.02407	0.0307
x2 = 0.06045	0.0671
x2 = 0.1219	0.133
x2 = 0.1415	0.154
x2 = 0.2193	0.219
x2 = 0.2527	0.244
x2 = 0.3063	0.279
x2 = 0.4181	0.323
x2 = 0.4877	0.339
x2 = 0.6186	0.345
x2 = 0.7619	0.311
x2 = 0.8716	0.229
x2 = 0.8962	0.201
x2 = 0.911	0.176
x2 = 0.9532	0.109
x2 = 0.9692	0.0793
x2 = 0.9809	0.0491
